Results as given in ChEMBL document CHEMBL1144903, “Generation of predictive pharmacophore models for CCR5 antagonists: study with piperidine- and piperazine-based compounds as a new class of HIV-1 entry inhibitors” (J Med Chem, 2003).

Target: C-C chemokine receptor type 5 (Homo sapiens, UniProt P51681)
Assay: Inhibition of RANTES binding to the human C-C chemokine receptor type 5 (CCR5)

Chain of C-C chemokine receptor type 5 (P51681 whole entry): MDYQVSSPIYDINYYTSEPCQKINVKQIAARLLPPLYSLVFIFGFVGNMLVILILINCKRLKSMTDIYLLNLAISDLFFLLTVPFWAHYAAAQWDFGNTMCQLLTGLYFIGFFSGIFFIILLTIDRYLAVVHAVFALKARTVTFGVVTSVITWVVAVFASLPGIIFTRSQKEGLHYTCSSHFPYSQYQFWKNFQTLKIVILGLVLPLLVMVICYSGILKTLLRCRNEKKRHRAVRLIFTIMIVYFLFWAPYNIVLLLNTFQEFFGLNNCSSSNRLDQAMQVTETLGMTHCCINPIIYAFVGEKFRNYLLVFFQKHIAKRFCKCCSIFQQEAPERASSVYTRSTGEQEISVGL

`CCO/N=C(/c1ccc(Br)cc1)C1CCN(C2(C)CCN(C(=O)c3c(C)cccc3C)CC2)CC1` and `CO/N=C(/c1ccc(Br)cc1)C1CCN(C2(C)CCN(C(=O)c3c(C)cccc3C)CC2)CC1` are the same in Ki: 0.002 µM for the first, 0.002 µM for the second.

Compared with `Cc1ccc(CC2CCN(C3(C)CCN(C(=O)c4c(C)cccc4C)CC3)CC2)cc1`, `Cc1cccc(C)c1C(=O)N1CCC(C)(N2CCC(Cc3ccc(Cl)cc3)CC2)CC1` is 1.6-fold lower in Ki: 0.11 µM for the first, 0.068 µM for the second.

Going from `C[C@H]1CN(C2(C)CCN(C(=O)c3c(N)cccc3Cl)CC2)CCN1[C@@H](C)c1ccc(I)cc1` to `Cc1cccc(O)c1C(=O)N1CCC(C)(N2CCN([C@@H](C)c3ccc(I)cc3)[C@@H](C)C2)CC1`, the Ki falls from 0.012 µM to 0.007 µM (1.7-fold). The second binds more tightly here.

Compared with `CCO/N=C(/c1ccc(Br)cc1)C1CCN(C2(C)CCN(C(=O)c3c(Br)c[n+]([O-])cc3Br)CC2)CC1`, `CCO/N=C(/c1ccc(Br)cc1)C1CCN(C2(C)CCN(C(=O)c3c(Cl)c[n+]([O-])cc3Cl)CC2)CC1` is 1.7-fold higher in Ki: 0.0007 µM for the first, 0.0012 µM for the second. The first binds more tightly here.

Going from `CCO/N=C(/c1ccc(Br)cc1)C1CCN(C2(C)CCN(C(=O)c3c(C)cncc3C)CC2)CC1` to `CCO/N=C(/c1ccc(Br)cc1)C1CCN(C2(C)CCN(C(=O)c3c(C)c[n+]([O-])cc3C)CC2)CC1`, the Ki rises from 0.0023 µM to 0.0088 µM (3.8-fold). The first binds more tightly here.

Compared with `CO/N=C(/c1ccc(Br)cc1)C1CCN(C2(C)CCN(C(=O)c3c(C)ncnc3C)CC2)CC1`, `CCO/N=C(/c1ccc(Br)cc1)C1CCN(C2(C)CCN(C(=O)c3c(C)ncnc3C)CC2)CC1` is 2.1-fold lower in Ki: 0.0047 µM for the first, 0.0022 µM for the second. The second binds more tightly here.

Compared with `CCO/N=C(/c1ccc(Cl)cc1)C1CCN(C2(C)CCN(C(=O)c3c(C)cc[n+]([O-])c3C)CC2)CC1`, `CCO/N=C(/c1ccc(F)cc1)C1CCN(C2(C)CCN(C(=O)c3c(C)cc[n+]([O-])c3C)CC2)CC1` is 5.4-fold higher in Ki: 0.0056 µM for the first, 0.03 µM for the second. The first binds more tightly here.

`CCO/N=C(/c1ccc(Br)cc1)C1CCN(C2(C)CCN(C(=O)c3c(C)ccnc3C)CC2)CC1` and `CO/N=C(/c1ccc(Br)cc1)C1CCN(C2(C)CCN(C(=O)c3c(C)ccnc3C)CC2)CC1` are the same in Ki: 0.0011 µM for the first, 0.0011 µM for the second.

First: Cc1cccc(C)c1C(=O)N1CCC(C)(N2CCC(/C(=N\Oc3ccccc3)c3ccc(Br)cc3)CC2)CC1
Second: Cc1cccc(C)c1C(=O)N1CCC(C)(N2CCC(/C(=N\OC(C)C)c3ccc(Br)cc3)CC2)CC1
The Ki of the first is higher: > 0.03 µM for the first, 0.004 µM for the second.

Going from `CCO/N=C(/c1ccc(C(F)(F)F)cc1)C1CCN(C2(C)CCN(C(=O)c3c(C)cc[n+]([O-])c3C)CC2)CC1` to `CCO/N=C(/c1ccc(S(C)(=O)=O)cc1)C1CCN(C2(C)CCN(C(=O)c3c(C)cc[n+]([O-])c3C)CC2)CC1`, the Ki rises from 0.0038 µM to 0.02 µM (5.3-fold). The first binds more tightly here.

First: CO/N=C(/c1ccc(S(C)(=O)=O)cc1)C1CCN(C2(C)CCN(C(=O)c3c(C)cc[n+]([O-])c3C)CC2)CC1
Second: CO/N=C(/c1ccc(Br)cc1)C1CCN(C2(C)CCN(C(=O)c3c(C)cc[n+]([O-])c3C)CC2)CC1
The Ki of the first is 1.6-fold higher: 0.03 µM for the first, 0.019 µM for the second. The second binds more tightly here.

`Cc1cccc(C)c1C(=O)N1CCC(C)(N2CCC(Cc3ccc(S(C)(=O)=O)cc3)CC2)CC1` and `Cc1cccc(C)c1C(=O)N1CCC(C)(N2CCC(Cc3ccc(I)cc3)CC2)CC1` are the same in Ki: 0.033 µM for the first, 0.033 µM for the second.

Compared with `CCO/N=C(/c1ccc(Br)cc1)C1CCN(C2(C)CCN(C(=O)c3cccnc3C)CC2)CC1`, `CCO/N=C(/c1ccc(Br)cc1)C1CCN(C2(C)CCN(C(=O)c3ccc[n+]([O-])c3C)CC2)CC1` is higher in Ki: 0.026 µM for the first, > 0.03 µM for the second.

Going from `CCO/N=C(/c1ccc(Br)cc1)C1CCN(C2(C)CCN(C(=O)c3c(C)ccc[n+]3[O-])CC2)CC1` to `CCO/N=C(/c1ccc(Br)cc1)C1CCN(C2(C)CCN(C(=O)c3ccc[n+]([O-])c3)CC2)CC1`, the Ki rises from 0.016 µM to > 0.03 µM. The first binds more tightly here.

`CNC(=O)CO/N=C(/c1ccc(Br)cc1)C1CCN(C2(C)CCN(C(=O)c3c(C)cccc3C)CC2)CC1` and `CCOC(=O)CO/N=C(/c1ccc(Br)cc1)C1CCN(C2(C)CCN(C(=O)c3c(C)cccc3C)CC2)CC1` are the same in Ki: 0.033 µM for the first, 0.033 µM for the second.

`CCO/N=C(/c1ccc(Br)cc1)C1CCN(C2(C)CCN(C(=O)c3c(C)cc[nH]c3=O)CC2)CC1` and `CCO/N=C(/c1ccc(Br)cc1)C1CCN(C2(C)CCN(C(=O)c3c(C)cc(C)nc3O)CC2)CC1` cannot be ordered by Ki: > 0.03 µM for the first, 0.043 µM for the second.

`CO/N=C(/c1ccc(Br)cc1)C1CCN(C2(C)CCN(C(=O)c3c(C)cccc3N)CC2)CC1` and `CO/N=C(/c1ccc(Br)cc1)C1CCN(C2(C)CCN(C(=O)c3c(N)cccc3Cl)CC2)CC1` are within 1.5-fold of each other in Ki: 0.0045 µM for the first, 0.0034 µM for the second.

Going from `CCO/N=C(/c1ccc(Br)cc1)C1CCN(C2(C)CCN(C(=O)c3c(C)cc(O)nc3C)CC2)CC1` to `CCO/N=C(/c1ccc(Br)cc1)C1CCN(C2(C)CCN(C(=O)c3c(C)cc(-c4ccncc4)cc3C)CC2)CC1`, the Ki falls from 0.007 µM to 0.0001 µM (70-fold). The second binds more tightly here.

First: Cc1cccc(C)c1C(=O)N1CCC(C)(N2CCN([C@@H](C)c3ccc(C(F)(F)F)cc3)[C@@H](C)C2)CC1
Second: Cc1cccc(C)c1C(=O)N1CCC(C)(N2CCC(Cc3ccc(C(F)(F)F)cc3)CC2)CC1
The Ki of the first is 25-fold lower: 0.001 µM for the first, 0.025 µM for the second. The first binds more tightly here.

`Cc1cccc(C)c1C(=O)N1CCC(C)(N2CCC(/C(=N\OC(C)(C)C)c3ccc(Br)cc3)CC2)CC1` and `C=C(c1ccc(Br)cc1)C1CCN(C2(C)CCN(C(=O)c3c(C)cccc3C)CC2)CC1` are within 1.5-fold of each other in Ki: 0.009 µM for the first, 0.008 µM for the second.

First: Cc1cccc(C)c1C(=O)N1CCC(C)(N2CCC(Cc3ccc(OC(F)(F)F)cc3)CC2)CC1
Second: COc1ccc(CC2CCN(C3(C)CCN(C(=O)c4c(C)cccc4C)CC3)CC2)cc1
The Ki of the first is 2.8-fold lower: 0.055 µM for the first, 0.155 µM for the second.

Going from `Cc1cccc(C)c1C(=O)N1CCC(C)(N2CCC(C(C)c3ccc(Br)cc3)CC2)CC1` (configuration not stated) to `Cc1cccc(C)c1C(=O)N1CCC(C)(N2CCC(Cc3ccc(-c4ccccc4)cc3)CC2)CC1`, the Ki rises from 0.062 µM to 0.36 µM (5.8-fold). The first binds more tightly here.

Going from `C[C@H]1CN(C2CCN(C(=O)c3c(F)cccc3I)CC2)CCN1[C@@H](C)c1ccc(I)cc1` to `CCO/N=C(/c1ccc(Br)cc1)C1CCN(C2(C)CCN(C(=O)c3c(F)cccc3C(F)(F)F)CC2)CC1`, the Ki falls from 1.3 µM to 0.003 µM (430-fold).

In the case of `CCO/N=C(/c1ccc(Br)cc1)C1CCN(C2(C)CCN(C(=O)c3cccnc3)CC2)CC1`, the Ki is reported as > 0.03 µM.
